Results taken from PubChem BioAssay AID330 (DTP/NCI, 2004).
Where “and” joins values, the source holds several entries; their conditions need not be identical. Identical values can stand only once. Inconclusive results and toxic doses are left out. The calls were made as follows: active = survival T/C of 150% or more; inactive = T/C below 125% in these data.

System: P388 leukemia ip, CD2F1 mice, survival T/C
Assay: NCI In Vivo Anticancer Drug Screen. Data for tumor model P388 Leukemia (intraperitoneal) in CD2F1 (CDF1) mice
Conditions: endpoint: median survival time, higher = longer survival
Summary of the method: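 Mice carrying the transplanted tumor received test compound or vehicle. Survival was recorded in each group, and the value is the treated-group measurement divided by that of the vehicle-treated control group.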

[1] = dose: 50.0 mg/kg/injection, schedule: Q01DX009 (ip), vehicle: Klucel (hydroxypropylcellulose) (HPC)
[2] = dose: 100.0 mg/kg/injection, schedule: Q01DX009 (ip), vehicle: Klucel (hydroxypropylcellulose) (HPC)
[3] = dose: 50.0 mg/kg/injection, schedule: Q01DX005 (ip), vehicle: Klucel (hydroxypropylcellulose) (HPC)
[4] = dose: 100.0 mg/kg/injection, schedule: Q01DX005 (ip), vehicle: Klucel (hydroxypropylcellulose) (HPC)
[5] = dose: 200.0 mg/kg/injection, schedule: Q01DX005 (ip), vehicle: Klucel (hydroxypropylcellulose) (HPC)
[6] = dose: 50.0 mg/kg/injection, schedule: Q01DX005 (ip), vehicle: saline with Tween-80
[7] = dose: 100.0 mg/kg/injection, schedule: Q01DX005 (ip), vehicle: saline with Tween-80
[8] = dose: 200.0 mg/kg/injection, schedule: Q01DX005 (ip), vehicle: saline with Tween-80

Measured: T/C

O=C(c1cc(Cl)c(Cl)c([N+](=O)[O-])c1Cl)C(Cl)Cl
inactive: dose: 25.0 mg/kg/injection, schedule: Q04DX003 (ip), vehicle: Klucel (hydroxypropylcellulose) (HPC) 104 % of control | dose: 50.0 mg/kg/injection, schedule: Q04DX003 (ip), vehicle: Klucel (hydroxypropylcellulose) (HPC) 99 % of control | dose: 100.0 mg/kg/injection, schedule: Q04DX003 (ip), vehicle: Klucel (hydroxypropylcellulose) (HPC) 103 % of control

CC(=O)N1CCCC2=C1CCCCCCCCCC2
inactive: dose: 100.0 mg/kg/injection, schedule: Q04DX003 (ip), vehicle: saline 99 % of control | dose: 200.0 mg/kg/injection, schedule: Q04DX003 (ip), vehicle: saline 105 % of control | dose: 400.0 mg/kg/injection, schedule: Q04DX003 (ip), vehicle: saline 96 % of control

Clc1ccc(CSc2cnnc3ccccc23)c(Cl)c1
inactive: dose: 75.0 mg/kg/injection, schedule: Q01DX009 (ip), vehicle: suspension in saline 96 % of control | dose: 150.0 mg/kg/injection, schedule: Q01DX009 (ip), vehicle: suspension in saline 89 % of control | dose: 300.0 mg/kg/injection, schedule: Q01DX009 (ip), vehicle: suspension in saline 89 % of control

CC1COCCOCCOCC(C)OC(=O)COCC(=O)O1 (stereo not drawn)
inactive: [1] 99 % of control | [2] 101 % of control | dose: 200.0 mg/kg/injection, schedule: Q01DX009 (ip), vehicle: Klucel (hydroxypropylcellulose) (HPC) 105 % of control

NC(CCN[N+](=O)[O-])C(=O)O (stereo not drawn)
inactive: dose: 25.0 mg/kg/injection, schedule: Q01DX005 (ip), vehicle: Klucel (hydroxypropylcellulose) (HPC) 103 % of control | [3] 97 % of control | [4] 96 % of control | [5] 97 % of control

CN(CO)N=Nc1ccc(C(F)(F)F)cc1
inactive: [6] 96 % of control | [7] 113 % of control | [8] 113 % of control

CC(=O)C1=C(O)C2(C)c3c(O)c(C)c(O)c(C(C)=O)c3OC2CC1=O (stereo not drawn)
inactive: dose: 6.25 mg/kg/injection, schedule: Q01DX009 (ip), vehicle: gum acacia 100 % of control and 106 % of control | dose: 12.5 mg/kg/injection, schedule: Q01DX009 (ip), vehicle: gum acacia 103 % of control and 108 % of control | dose: 25.0 mg/kg/injection, schedule: Q01DX009 (ip), vehicle: gum acacia 108 % of control and 110 % of control | dose: 50.0 mg/kg/injection, schedule: Q01DX009 (ip), vehicle: gum acacia 108 % of control and 110 % of control

O=C1NC2(CN3CCC2CC3)C(=O)N1CN(Cc1ccccc1)c1ccccc1 (stereo not drawn)
inactive: dose: 60.0 mg/kg/injection, schedule: Q01DX005 (ip), vehicle: saline with Tween-80 99 % of control | dose: 120.0 mg/kg/injection, schedule: Q01DX005 (ip), vehicle: saline with Tween-80 99 % of control | dose: 240.0 mg/kg/injection, schedule: Q01DX005 (ip), vehicle: saline with Tween-80 99 % of control

Oc1c(N=Nc2nn[nH]n2)ccc2ccccc12
inactive: [6] 105 % of control | [7] 97 % of control | [8] 99 % of control

Cc1ccc2c(=O)ccn(Cc3ccccc3)c2n1
inactive: dose: 100.0 mg/kg/injection, schedule: Q01DX001 (ip), vehicle: saline 101 % of control | dose: 200.0 mg/kg/injection, schedule: Q01DX001 (ip), vehicle: saline 103 % of control | dose: 400.0 mg/kg/injection, schedule: Q01DX001 (ip), vehicle: saline 92 % of control

CCCCCCCCCCCCCCS[As](C)C
inactive: dose: 25.0 mg/kg/injection, schedule: Q04DX002 (ip), vehicle: Klucel (hydroxypropylcellulose) (HPC) 101 % of control | dose: 50.0 mg/kg/injection, schedule: Q04DX002 (ip), vehicle: Klucel (hydroxypropylcellulose) (HPC) 94 % of control | dose: 100.0 mg/kg/injection, schedule: Q04DX002 (ip), vehicle: Klucel (hydroxypropylcellulose) (HPC) 90 % of control and 92 % of control | dose: 400.0 mg/kg/injection, schedule: Q04DX002 (ip), vehicle: Klucel (hydroxypropylcellulose) (HPC) 91 % of control

Cc1ccc(S(=O)(=O)NN=C2C3CCC2CC3)cc1
inactive: dose: 50.0 mg/kg/injection, schedule: Q01DX009 (ip), vehicle: saline with Tween-80 111 % of control | dose: 100.0 mg/kg/injection, schedule: Q01DX009 (ip), vehicle: saline with Tween-80 108 % of control | dose: 200.0 mg/kg/injection, schedule: Q01DX009 (ip), vehicle: saline with Tween-80 118 % of control

CCCCCC(CN(C)C)C(O)CCc1ccc(Cl)c(Cl)c1 (stereo not drawn)
inactive: dose: 25.0 mg/kg/injection, schedule: Q01DX009 (ip), vehicle: Klucel (hydroxypropylcellulose) (HPC) 106 % of control | [1] 98 % of control | [2] 104 % of control

CC(C(=O)O)c1cccc2c(=O)cc(-c3ccccc3)oc12 (stereo not drawn)
inactive: [3] 100 % of control | [4] 87 % of control | [5] 109 % of control

CCCCC1(Cc2ccccc2)SC(=O)NC1=O (stereo not drawn)
inactive: [6] 98 % of control | [7] 100 % of control | [8] 91 % of control
